Source: the supplement of paper PMC10307832

Legend:
Assay in all cases: relative viability (nuclei count vs DMSO), 5 days (fraction); higher = more cells survive
[1] = compound: C[C@]1(O)C[C@@H](c2nc(-c3ccc4ccc(-c5ccccc5)nc4c3)c3c(N)nccn32)C1 [Linsitinib] + Cc1cc(Nc2cc(N3CCN(C)CC3)nc(Sc3ccc(NC(=O)C4CC4)cc3)n2)n[nH]1 [Tozasertib] (partner 0.1 µM)
Method in brief: (§1)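 Dosing by pin tool came one day after lung cancer cell lines were seeded in 1536-well plates, using either one drug or a fixed anchor-drug dose plus five library-drug doses (not always all listed) in √10 steps. After 5 days, nuclei were counted on 4× images. Relative viability is treated-well nuclei count divided by vehicle-well nuclei count, and values are medians of duplicate plates.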

[2] = compound: Cc1ccc(C(=O)N(CCCN)[C@@H](c2nc3cc(Cl)ccc3c(=O)n2Cc2ccccc2)C(C)C)cc1 [Ispinesib] + C[C@]1(O)C[C@@H](c2nc(-c3ccc4ccc(-c5ccccc5)nc4c3)c3c(N)nccn32)C1 [Linsitinib] (partner 1 µM)
Method in brief: as §1

[3] = compound: Cc1ccc(C(=O)N(CCCN)[C@@H](c2nc3cc(Cl)ccc3c(=O)n2Cc2ccccc2)C(C)C)cc1 [Ispinesib] + CC(C)C[C@H](NC(=O)[C@H](Cc1ccccc1)NC(=O)c1cnccn1)B(O)O [Bortezomib] (partner 0.002 µM)
Method in brief: as §1

[4] = compound: C[C@]1(O)C[C@@H](c2nc(-c3ccc4ccc(-c5ccccc5)nc4c3)c3c(N)nccn32)C1 [Linsitinib] + COc1cccc2cc(-c3nc([C@H]4CC[C@H](C(=O)O)CC4)n4ncnc(N)c34)[nH]c12 [OSI-027] (partner 0.5 µM)
Method in brief: as §1

Row | Cell Line | relative viability ([1]; first compound 0.01 µM) | relative viability ([1]; first compound 0.03162 µM) | relative viability ([1]; first compound 0.1 µM) | relative viability ([1]; first compound 0.3162 µM) | relative viability ([1]; first compound 1 µM) | relative viability ([2]; first compound 0.001 µM) | relative viability ([2]; first compound 0.003162 µM) | relative viability ([2]; first compound 0.01 µM) | relative viability ([2]; first compound 0.03162 µM) | relative viability ([2]; first compound 0.1 µM) | relative viability ([3]; first compound 0.001 µM) | relative viability ([3]; first compound 0.003162 µM) | relative viability ([3]; first compound 0.01 µM) | relative viability ([3]; first compound 0.03162 µM) | relative viability ([3]; first compound 0.1 µM) | relative viability ([4]; first compound 0.01 µM) | relative viability ([4]; first compound 0.03162 µM) | relative viability ([4]; first compound 0.1 µM) | relative viability ([4]; first compound 0.3162 µM) | relative viability ([4]; first compound 1 µM)
1 | 201T | 0.951 | 0.929 | 0.988 | 0.977 | 0.938 | 1.08 | 1.06 | 1.06 | 1.01 | 0.988 | 1.13 | 1.16 | 0.947 | 1.02 | 0.669 | 0.808 | 0.799 | 1.01 | 0.829 | 0.342
2 | A549 |  |  |  |  |  | 0.628 | 0.551 | 0.769 | 0.434 | 0.0756 |  |  |  |  |  |  |  |  |  | 
3 | A-427 | 0.211 | 0.222 | 0.234 |  | 0.177 | 1.15 | 1.13 | 1.15 | 1.21 | 1.12 | 0.98 | 1.07 | 1.01 | 0.351 | 0.206 | 0.448 | 0.432 | 0.5 |  | 0.357
4 | ABC-1 | 0.18 | 0.164 | 0.145 | 0.153 | 0.171 | 0.94 | 0.874 | 0.965 | 0.376 | 0.338 | 0.269 | 0.317 | 0.302 | 0.197 | 0.273 | 0.502 | 0.447 | 0.504 | 0.38 | 0.217
5 | BEN | 0.537 | 0.611 | 0.481 | 0.377 | 0.486 | 1 | 1.12 | 1.06 | 0.682 | 0.32 | 0.927 | 1.01 | 0.851 | 0.431 | 0.201 | 0.346 | 0.27 | 0.258 |  | 0.249
6 | CAL-12T | 0.267 | 0.287 | 0.296 | 0.255 | 0.225 | 0.98 | 0.784 | 0.785 | 0.778 | 0.193 | 0.961 | 1.4 | 0.955 | 0.579 | 0.184 | 0.625 | 0.688 | 0.679 | 0.351 | 0.297
7 | COR-L23 | 0.196 | 0.207 | 0.396 | 0.174 | 0.152 | 1.12 | 0.946 | 1 | 0.161 | 0.16 | 1.29 | 1.04 | 1.17 | 0.247 | 0.27 | 0.626 | 0.968 | 0.804 | 0.52 | 0.509
8 | COR-L 105 | 0.421 | 0.324 | 0.356 | 0.298 | 0.309 | 0.985 | 0.993 | 0.814 | 0.492 | 0.26 | 0.836 | 0.664 | 0.325 | 0.311 | 0.303 | 0.64 | 0.578 | 0.603 | 0.596 | 0.381
9 | Calu-6 |  |  |  |  |  | 0.998 |  | 0.712 | 0.297 | 0.133 | 0.9 | 0.725 | 0.24 | 0.137 | 0.202 |  |  |  |  | 
10 | ChaGo-K-1 | 0.208 | 0.184 | 0.221 | 0.227 | 0.2 |  |  |  |  |  | 1.02 | 1.45 | 1.11 | 0.966 | 0.379 | 0.613 | 0.627 | 0.573 | 0.319 | 0.522
11 | EBC-1 |  |  |  |  |  | 0.926 | 1.04 | 1.04 | 0.8 | 0.187 | 0.663 | 0.626 | 0.476 | 0.207 | 0.263 |  |  |  |  | 
12 | EKVX | 0.362 | 0.385 | 0.493 | 0.214 | 0.352 | 1.15 | 1.05 | 1.17 | 0.927 | 0.454 | 1.09 | 1.24 | 1.15 | 0.939 | 0.186 | 0.706 | 0.723 | 0.687 | 0.467 | 0.607
13 | EMC-BAC-2 | 0.294 | 0.271 | 0.291 | 0.206 | 0.255 | 0.831 | 0.847 | 0.858 | 0.614 | 0.487 | 1.06 | 1.13 | 1.27 | 0.671 | 0.214 | 0.365 | 0.377 | 0.336 | 0.341 | 0.247
14 | EPLC-272H | 0.358 | 0.249 |  |  | 0.222 | 1.17 | 1.53 | 1.48 | 1.05 | 1.06 | 0.869 | 1.13 | 0.935 | 0.655 | 0.163 | 0.262 | 0.296 |  |  | 0.257
15 | H3255 | 0.626 | 0.65 | 0.612 | 0.497 | 0.559 | 0.919 | 1.19 | 1.06 | 0.785 | 0.292 | 1 | 0.991 | 0.814 | 0.38 | 0.374 | 0.654 | 0.682 | 0.725 | 0.467 | 0.576
16 | HARA | 0.135 | 0.106 | 0.202 |  | 0.138 | 0.993 | 0.85 | 1.32 | 1.07 | 0.207 | 1.37 | 1.21 | 1.42 | 0.931 | 0.211 | 0.505 | 0.502 | 0.637 |  | 0.232
17 | HCC-15 | 0.389 | 0.424 | 0.404 |  | 0.319 | 0.998 | 1.06 | 1.06 | 0.663 | 0.415 | 1.14 | 1.19 | 1.24 | 0.563 | 0.226 | 0.677 | 0.677 | 0.616 |  | 0.246
18 | HCC-44 | 1.1 | 0.889 | 0.849 | 0.557 | 0.573 | 0.702 | 0.746 | 0.812 | 0.698 | 0.248 | 0.911 | 1 | 1.1 | 0.719 | 0.131 | 0.503 | 0.41 | 0.465 | 0.181 | 0.232
